Data published in PubChem BioAssay AID330 (DTP/NCI, 2004).
Inconclusive results and toxic doses are left out. The calls were made as follows: active = survival T/C of 150% or more; inactive = T/C below 125% in these data.

Tested on: P388 leukemia ip, CD2F1 mice, survival T/C
Test: NCI In Vivo Anticancer Drug Screen. Data for tumor model P388 Leukemia (intraperitoneal) in CD2F1 (CDF1) mice
Details: endpoint: median survival time, higher = longer survival
How it was run: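 Mice carrying the transplanted tumor received test compound or vehicle. Survival was recorded in each group, and the value is the treated-group measurement divided by that of the vehicle-treated control group.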

[1] = dose: 60.0 mg/kg/injection, schedule: Q01DX005 (ip), vehicle: saline with Tween-80
[2] = dose: 120.0 mg/kg/injection, schedule: Q01DX005 (ip), vehicle: saline with Tween-80
[3] = dose: 240.0 mg/kg/injection, schedule: Q01DX005 (ip), vehicle: saline with Tween-80
[4] = dose: 200.0 mg/kg/injection, schedule: Q01DX009 (ip), vehicle: Klucel (hydroxypropylcellulose) (HPC)
[5] = dose: 50.0 mg/kg/injection, schedule: Q01DX005 (ip), vehicle: saline
[6] = dose: 100.0 mg/kg/injection, schedule: Q01DX005 (ip), vehicle: saline
[7] = dose: 200.0 mg/kg/injection, schedule: Q01DX005 (ip), vehicle: saline
[8] = dose: 50.0 mg/kg/injection, schedule: Q01DX005 (ip), vehicle: Klucel (hydroxypropylcellulose) (HPC)
[9] = dose: 100.0 mg/kg/injection, schedule: Q01DX005 (ip), vehicle: Klucel (hydroxypropylcellulose) (HPC)
[10] = dose: 200.0 mg/kg/injection, schedule: Q01DX005 (ip), vehicle: Klucel (hydroxypropylcellulose) (HPC)
[11] = dose: 50.0 mg/kg/injection, schedule: Q01DX009 (ip), vehicle: saline with Tween-80
[12] = dose: 100.0 mg/kg/injection, schedule: Q01DX009 (ip), vehicle: saline with Tween-80
[13] = dose: 200.0 mg/kg/injection, schedule: Q01DX009 (ip), vehicle: saline with Tween-80

Measured: T/C

Cl/N=C1C=C/C(=N\Cl)C=C/1Cl
inactive: dose: 6.25 mg/kg/injection, schedule: Q01DX005 (ip), vehicle: saline with Tween-80 110 % of control | dose: 12.5 mg/kg/injection, schedule: Q01DX005 (ip), vehicle: saline with Tween-80 110 % of control | dose: 25.0 mg/kg/injection, schedule: Q01DX005 (ip), vehicle: saline with Tween-80 107 % of control

CCC1(N(C)C)C(=O)NC(=O)N(C2CCCCC2)C1=O (stereo not given)
inactive: dose: 60.0 mg/kg/injection, schedule: Q01DX005 (ip), vehicle: Klucel (hydroxypropylcellulose) (HPC) 98 % of control | dose: 120.0 mg/kg/injection, schedule: Q01DX005 (ip), vehicle: Klucel (hydroxypropylcellulose) (HPC) 96 % of control | dose: 240.0 mg/kg/injection, schedule: Q01DX005 (ip), vehicle: Klucel (hydroxypropylcellulose) (HPC) 91 % of control

Nc1ccc2[nH]c3cnccc3c2c1
inactive: dose: 12.5 mg/kg/injection, schedule: Q01DX009 (ip), vehicle: other 103 % of control | dose: 25.0 mg/kg/injection, schedule: Q01DX009 (ip), vehicle: other 108 % of control | dose: 50.0 mg/kg/injection, schedule: Q01DX009 (ip), vehicle: other 103 % of control | dose: 100.0 mg/kg/injection, schedule: Q01DX009 (ip), vehicle: other 103 % of control

Nc1ccc(Cn2ccnn2)cc1
inactive: [1] 100 % of control | [2] 95 % of control | [3] 101 % of control

Cc1nc(NN)nc(N)c1S(=O)(=O)Cc1ccc(Cl)cc1
inactive: dose: 100.0 mg/kg/injection, schedule: Q04DX002 (ip), vehicle: saline 94 % of control | dose: 200.0 mg/kg/injection, schedule: Q04DX002 (ip), vehicle: saline 90 % of control | dose: 400.0 mg/kg/injection, schedule: Q04DX002 (ip), vehicle: saline 90 % of control

CCOC(=O)N1Cc2cc3ccccc3nc2C1CC(=O)O (stereo not given)
inactive: [4] 95 % of control | dose: 400.0 mg/kg/injection, schedule: Q01DX009 (ip), vehicle: Klucel (hydroxypropylcellulose) (HPC) 104 % of control

O=C1C(Cl)=C(Cl)C(=O)N1c1ccc(Br)cc1Br
inactive: dose: 100.0 mg/kg/injection, schedule: Q04DX002 (ip), vehicle: Klucel (hydroxypropylcellulose) (HPC) 105 % of control | dose: 200.0 mg/kg/injection, schedule: Q04DX002 (ip), vehicle: Klucel (hydroxypropylcellulose) (HPC) 105 % of control | dose: 400.0 mg/kg/injection, schedule: Q04DX002 (ip), vehicle: Klucel (hydroxypropylcellulose) (HPC) 100 % of control

COC(=O)c1cc(-c2ccc([N+](=O)[O-])cc2)c2c(=O)n(-c3ccccc3)[nH]c2n1
inactive: [1] 94 % of control | [2] 87 % of control | [3] 88 % of control

CN(C)N1C(=O)C2C3C=CC(O3)C2C1=O (stereo not given)
inactive: [5] 104 % of control | [6] 109 % of control | [7] 100 % of control

Nc1cc2[nH]c(=O)oc2cc1Cl
inactive: [8] 94 % of control | [9] 100 % of control | [10] 94 % of control

O=c1[nH]c(=O)n(C2OC(CO)C(O)C2O)cc1Br (stereo not given)
inactive: [5] 97 % of control | [6] 101 % of control | [7] 102 % of control

O=S(=O)(Oc1cccc2ccccc12)C(F)(F)C(F)(F)C(F)(F)C(F)(F)F
inactive: [11] 108 % of control | [12] 108 % of control | [13] 105 % of control

CN(C)CCC(C#N)(CCC1CCCCC1)c1ccccc1 (stereo not given)
inactive: dose: 10.0 mg/kg/injection, schedule: Q01DX009 (ip), vehicle: saline 103 % of control | dose: 20.0 mg/kg/injection, schedule: Q01DX009 (ip), vehicle: saline 104 % of control | dose: 40.0 mg/kg/injection, schedule: Q01DX009 (ip), vehicle: saline 103 % of control

Nc1ccc(NS(=O)(=O)c2cccs2)c(O)c1
inactive: dose: 50.0 mg/kg/injection, schedule: Q01DX009 (ip), vehicle: Klucel (hydroxypropylcellulose) (HPC) 97 % of control | dose: 100.0 mg/kg/injection, schedule: Q01DX009 (ip), vehicle: Klucel (hydroxypropylcellulose) (HPC) 94 % of control | [4] 105 % of control

Clc1cccc(C(Nc2nncs2)Nc2nncs2)c1Cl
inactive: [1] 89 % of control | [2] 100 % of control | [3] 96 % of control

CN(C)c1nnn(Cc2ccccc2)n1
inactive: [8] 101 % of control | [9] 97 % of control | [10] 104 % of control

CC1(C)CCC2(C(=O)O)CCC3(C)C(=CCC4C5(C)CCC(OC6OC(CO)C(O)C(OC7OC(CO)C(O)C(O)C7O)C6OC6OC(CO)C(O)C(O)C6O)C(C)(C)C5CCC43C)C2C1 (stereo not given)
inactive: dose: 3.75 mg/kg/injection, schedule: Q01DX005 (ip), vehicle: Klucel (hydroxypropylcellulose) (HPC) 102 % of control | dose: 7.5 mg/kg/injection, schedule: Q01DX005 (ip), vehicle: Klucel (hydroxypropylcellulose) (HPC) 100 % of control | dose: 15.0 mg/kg/injection, schedule: Q01DX005 (ip), vehicle: Klucel (hydroxypropylcellulose) (HPC) 88 % of control | dose: 30.0 mg/kg/injection, schedule: Q01DX005 (ip), vehicle: Klucel (hydroxypropylcellulose) (HPC) 100 % of control

CCCCCCCCCCCCCCCCCc1n[nH]c(=S)o1
inactive: [11] 99 % of control | [12] 99 % of control | [13] 98 % of control

C=C(C)c1nc(N)nc(-c2cccc(-c3nc(N)nc(C(=C)C)n3)c2)n1
inactive: [8] 95 % of control | [9] 99 % of control | [10] 100 % of control

COc1c(Cc2ccccc2O)c(O)cc(O)c1C(=O)CCc1ccccc1
inactive: dose: 0.25 mg/kg/injection, schedule: Q01DX009 (ip), vehicle: Klucel (hydroxypropylcellulose) (HPC) 100 % of control | dose: 0.5 mg/kg/injection, schedule: Q01DX009 (ip), vehicle: Klucel (hydroxypropylcellulose) (HPC) 101 % of control | dose: 1.0 mg/kg/injection, schedule: Q01DX009 (ip), vehicle: Klucel (hydroxypropylcellulose) (HPC) 107 % of control | dose: 2.0 mg/kg/injection, schedule: Q01DX009 (ip), vehicle: Klucel (hydroxypropylcellulose) (HPC) 113 % of control | dose: 4.0 mg/kg/injection, schedule: Q01DX009 (ip), vehicle: Klucel (hydroxypropylcellulose) (HPC) 104 % of control | dose: 8.0 mg/kg/injection, schedule: Q01DX009 (ip), vehicle: Klucel (hydroxypropylcellulose) (HPC) 100 % of control | dose: 16.0 mg/kg/injection, schedule: Q01DX009 (ip), vehicle: Klucel (hydroxypropylcellulose) (HPC) 96 % of control | dose: 32.0 mg/kg/injection, schedule: Q01DX009 (ip), vehicle: Klucel (hydroxypropylcellulose) (HPC) 100 % of control

CSc1nc(N)c2cnn(Cc3ccccc3)c2n1
inactive: dose: 100.0 mg/kg/injection, schedule: Q01DX001 (ip), vehicle: saline with Tween-80 102 % of control | dose: 200.0 mg/kg/injection, schedule: Q01DX001 (ip), vehicle: saline with Tween-80 100 % of control | dose: 400.0 mg/kg/injection, schedule: Q01DX001 (ip), vehicle: saline with Tween-80 94 % of control

Cn1c(=O)c2c(nc(/N=C/c3ccc([N+](=O)[O-])cc3)n2C)n(C)c1=O
inactive: dose: 100.0 mg/kg/injection, schedule: Q04DX003 (ip), vehicle: saline 100 % of control | dose: 200.0 mg/kg/injection, schedule: Q04DX003 (ip), vehicle: saline 86 % of control | dose: 400.0 mg/kg/injection, schedule: Q04DX003 (ip), vehicle: saline 93 % of control

CCCC(C)c1ccc(OCc2ccc(C)cc2)cc1 (stereo not given)
inactive: [11] 114 % of control | [12] 91 % of control | [13] 95 % of control

CC(=O)c1cc(C)[nH]c1C
inactive: dose: 37.5 mg/kg/injection, schedule: Q01DX009 (ip), vehicle: Klucel (hydroxypropylcellulose) (HPC) 103 % of control | [11] 100 % of control | dose: 50.0 mg/kg/injection, schedule: Q04DX003 (ip), vehicle: saline with Tween-80 100 % of control | dose: 75.0 mg/kg/injection, schedule: Q01DX009 (ip), vehicle: Klucel (hydroxypropylcellulose) (HPC) 103 % of control | [12] 113 % of control | dose: 100.0 mg/kg/injection, schedule: Q04DX003 (ip), vehicle: saline with Tween-80 109 % of control | dose: 150.0 mg/kg/injection, schedule: Q01DX009 (ip), vehicle: Klucel (hydroxypropylcellulose) (HPC) 103 % of control | dose: 150.0 mg/kg/injection, schedule: Q01DX009 (ip), vehicle: saline with Tween-80 105 % of control | [13] 113 % of control | dose: 200.0 mg/kg/injection, schedule: Q04DX003 (ip), vehicle: saline with Tween-80 109 % of control
